Test results reported in article PMC8058401, “Identification and Characterization of Zika Virus NS5 Methyltransferase Inhibitors” (Frontiers in Cellular and Infection Microbiology, 2021).
Where two headings read alike, the source gives them in different places.

Tests used:
ZIKV [1] = conditions: cited from earlier work
ZIKV [2] = experiment: virus yield reduction assay by qRT-PCR in Huh-7 cells; conditions: Huh7 cells, 72 hpi; for effect on viral RNA copy numbers: dose dependent
ZIKV (SMGC-1) = experiment: cell viability assay based on ZIKV-induced cytopathic effect (CPE) in Huh-7 cells; conditions: Zika virus, Huh-7, read-out: EC50, protection from ZIKV induced CPE
WNV = system: WNV; set-up: method as in Dong et al., 2008; Tao et al., 2018; conditions: ref Dong et al., 2008; Tao et al., 2018; read-out: EC50, anti-virus activity for WNV; cited from earlier work
DENV = system: DENV; set-up: method as in Dong et al., 2008; Tao et al., 2018; conditions: ref Dong et al., 2008; Tao et al., 2018; read-out: EC50, anti-virus activity for DENV; cited from earlier work
[3] = target: ZIKV NS5 MTase (WT-MTase) (Zika virus, UniProt A0A024B7W1); experiment: biochemical
NS5 MTase of WNV = target: NS5 MTase of WNV; set-up: method as in Dong et al., 2008; conditions: ref Dong et al., 2008; cited from earlier work
NS5 MTase of DENV = target: NS5 MTase of DENV; set-up: method as in Dong et al., 2008; conditions: ref Dong et al., 2008; cited from earlier work
ZIKV NS5 K105A-MTase = ZIKV NS5 K105A-MTase (Zika virus, UniProt A0A024B7W1, K2625A); experiment: luminescence-based methyltransferase assay, K105A-MTase
CCK-8 cytotoxicity assay = conditions: human
SARS-CoV-2 3CL-protease = system: SARS-CoV-2 3CL-protease; set-up: method as in Jang et al., 2020; conditions: dose-dependent; ref Jang et al., 2020; cited from earlier work
ZIKV NS5 WT-MTase = ZIKV NS5 WT-MTase (Zika virus, UniProt A0A024B7W1); experiment: surface plasmon resonance assay, WT-MTase; type: binding

For `Cc1cc(N)c2cc(NC(=O)Nc3ccc4nc(C)cc(N)c4c3)ccc2n1` [NSC 12155], the “inhibitory activity toward ZIKV” value (ZIKV [1]; no reference given) is given as “no inhibitory activity”.
In the case of `CCN(CC)CCCC(C)Nc1ccnc2cc(Cl)ccc12` (stereo not shown) [chloroquine], the “effect on viral RNA copy numbers” value (ZIKV [2]) is given as “significantly reduced viral RNA copy numbers”, the EC50 (ZIKV (SMGC-1)) is given as 2.55 µM and the EC50 (ZIKV [1]; ref Li C. et al., 2017, Han et al., 2019, read-out: EC50, ZIKV infection in vitro) is given as 1 to 5 µM.
In the case of `Nc1ncnc2c1ncn2[C@@H]1O[C@H](C[C@@H](N)CC[C@H](N)C(=O)O)[C@@H](O)[C@H]1O` [sinefungin], the EC50 (WNV) is listed as 27 µM, the EC50 (DENV) is listed as 77 µM and the IC50 [3] is listed as 4.03 µM. The IC50 (NS5 MTase of WNV) was ~14 µM, the IC50 (NS5 MTase of DENV) was ~0.63 µM and the EC50 (ZIKV [1]; ref Dong et al., 2008, Tao et al., 2018, read-out: EC50, anti-virus activity for ZIKV) was > 50 µM.
With `O=c1c(O)cc([C@H]2Oc3cc(O)cc(O)c3C[C@H]2O)cc2c([C@H]3Oc4cc(O)cc(O)c4C[C@H]3O)cc(O)c(O)c12` [theaflavin] the IC50 (ZIKV NS5 K105A-MTase) was 37.8 µM, the CC50 at 24 h (CCK-8 cytotoxicity assay) was > 128 µM and the IC50 [3] was 10.1 µM. The inhibition at 20 µM ([3]; at 20 μM, read-out: MTase inhibitory activity in initial screening) was > 50%, the “inhibitory activity toward SARS-CoV-2 by targeting the 3CL-protease” value (SARS-CoV-2 3CL-protease) was “significant inhibitory activity” and the Kd (ZIKV NS5 WT-MTase) was 64.4 µM. The “reduction of viral RNA detected in the supernatant” value (ZIKV [2]; 20 μM) was “more than 50%”, the “effect on viral RNA copy numbers” value (ZIKV [2]) was “significantly reduced viral RNA copy numbers” and the EC50 (ZIKV (SMGC-1)) was 8.19 µM.
